# Assay results taken from patent US20160331798A1, “NATURAL PRODUCT INHIBITORS OF 3DG” (Dynamis Pharmaceuticals, Inc., priority 2008, published 2016).
# Counter-ions that a name gives are not always drawn.
# Key:
# [1] = animal models; cited from earlier work
# [2] = 3DG inactivation assay (3DG binding assay); conditions: for 3DG inactivating activity: summary of Table 3
# Procedure: The following assay was used to determine inactivation of 3DG by various natural products and chemicals.
# • 1. Dilute the samples with Reagent 1 to a volume of 1.9 ml and add 100 uL Reagent 6 to a total of 2 mL. • 2. Take 600 μL from each solution before incubation (as 0 day sample) • 3. Let sit for 24 hours and 72 hours at 37° and remove 600 μL for samples on day 1 and day 3) • 4.
# [3] = in vivo; cited from earlier work
compound,measurement,setting,value
N=C(N)NN [Aminoguanidine],"AGEs-associated retinal, neural, arterial, and renal pathologies",[1],reduces
N=C(N)NCCC[C@H](N)C(=O)O [Arginine],3DG Conc,"[2]; 2 mM, 1 day, 37°",15.71 µM
same,3DG Conc,"[2]; 2 mM, 3 days, 37°",13.14 µM
same,3DG Conc,"[2]; 6 mM, 1 day, 37°",13.66 µM
same,3DG Conc,"[2]; 6 mM, 3 days, 37°",8.50 µM
same,3DG Conc,"[2]; 12 mM, 1 day, 37°",12.24 µM
same,3DG Conc,"[2]; 12 mM, 3 days, 37°",4.98 µM
same,3DG inactivating activity,[2],most amount of 3DG inactivating activity
O=C1O[C@H]([C@@H](O)CO)C(O)=C1O [Ascorbic Acid],3DG Conc,"[2]; 5 mM, 1 day, 37°",13.75 µM
same,3DG Conc,"[2]; 5 mM, 3 days, 37°",11.86 µM
same,3DG Conc,"[2]; 15 mM, 1 day, 37°",13.99 µM
same,3DG Conc,"[2]; 15 mM, 3 days, 37°",10.18 µM
same,3DG Conc,"[2]; 30 mM, 1 day, 37°",17.26 µM
same,3DG Conc,"[2]; 30 mM, 3 days, 37°",12.64 µM
CC(C)(CO)[C@@H](O)C(=O)NCCC(=O)[O-].CC(C)(CO)[C@@H](O)C(=O)NCCC(=O)[O-].[Ca+2] [Calcium Panthenate],3DG Conc,"[2]; 2.5 mM, 1 day, 37°",17.27 µM
same,3DG Conc,"[2]; 2.5 mM, 3 days, 37°",16.18 µM
same,3DG Conc,"[2]; 5 mM, 0 day",21.06 µM
same,3DG Conc,"[2]; 5 mM, 1 day, 37°",18.13 µM
same,3DG Conc,"[2]; 5 mM, 3 days, 37°",17.96 µM
same,3DG Conc,"[2]; 7.5 mM, 1 day, 37°",16.92 µM
same,3DG Conc,"[2]; 7.5 mM, 3 days, 37°",15.37 µM
same,3DG Conc,"[2]; 12.5 mM, 1 day, 37°",18.58 µM
same,3DG Conc,"[2]; 12.5 mM, 3 days, 37°",14.57 µM
same,3DG Conc,"[2]; 15 mM, 0 day",22.86 µM
same,3DG Conc,"[2]; 15 mM, 1 day, 37°",18.84 µM
same,3DG Conc,"[2]; 15 mM, 3 days, 37°",16.95 µM
same,3DG Conc,"[2]; 30 mM, 0 day",22.09 µM
same,3DG Conc,"[2]; 30 mM, 1 day, 37°",19.56 µM
same,3DG Conc,"[2]; 30 mM, 3 days, 37°",19.17 µM
NCCC(=O)N[C@@H](Cc1cnc[nH]1)C(=O)O [Carnosine],3DG Conc,"[2]; 2 mM, 1 day, 37°",16.85 µM
same,3DG Conc,"[2]; 2 mM, 3 days, 37°",15.58 µM
same,3DG Conc,"[2]; 5 mM, 1 day, 37°",16.18 µM
same,3DG Conc,"[2]; 5 mM, 3 days, 37°",14.58 µM
same,3DG Conc,"[2]; 6 mM, 1 day, 37°",15.96 µM
same,3DG Conc,"[2]; 6 mM, 3 days, 37°",16.93 µM
same,3DG Conc,"[2]; 12 mM, 1 day, 37°",15.05 µM
same,3DG Conc,"[2]; 12 mM, 3 days, 37°",12.37 µM
same,3DG Conc,"[2]; 15 mM, 1 day, 37°",16.90 µM
same,3DG Conc,"[2]; 15 mM, 3 days, 37°",15.39 µM
same,3DG Conc,"[2]; 30 mM, 1 day, 37°",18.45 µM
same,3DG Conc,"[2]; 30 mM, 3 days, 37°",13.97 µM
"Cl.N[C@H]1C(O)O[C@H](CO)[C@@H](O)[C@@H]1O (stereo partly drawn) [Glucosamine HCl, D-Glucosamine HCl]",3DG Conc,"[2]; 5 mM, 0 day",25.15 µM
same,3DG Conc,"[2]; 5 mM, 1 day, 37°",43.42 µM
same,3DG Conc,"[2]; 5 mM, 3 days, 37°",82.33 µM
same,3DG Conc,"[2]; 15 mM, 0 day",36.00 µM
same,3DG Conc,"[2]; 15 mM, 1 day, 37°",122.14 µM
same,3DG Conc,"[2]; 15 mM, 3 days, 37°",181.09 µM
same,3DG Conc,"[2]; 30 mM, 0 day",56.87 µM
same,3DG Conc,"[2]; 30 mM, 1 day, 37°",183.92 µM
same,3DG Conc,"[2]; 30 mM, 3 days, 37°",173.60 µM
"CNC[C@H](O)[C@@H](O)[C@H](O)[C@H](O)CO.Cl [Meglumine-HCl, reference compound]",3DG Conc,"[2]; 5 mM, 1 day, 37°",17.51 µM
same,3DG Conc,"[2]; 5 mM, 3 days, 37°",16.27 µM
same,3DG Conc,"[2]; 15 mM, 1 day, 37°",16.58 µM
same,3DG Conc,"[2]; 15 mM, 3 days, 37°",17.52 µM
same,3DG Conc,"[2]; 30 mM, 1 day, 37°",15.39 µM
same,3DG Conc,"[2]; 30 mM, 3 days, 37°",15.87 µM
CC(C)(CO)[C@@H](O)C(=O)NCCCO [Panthenol],3DG Conc,"[2]; 5 mM, 0 day",19.54 µM
same,3DG Conc,"[2]; 5 mM, 1 day, 37°",18.10 µM
same,3DG Conc,"[2]; 5 mM, 3 days, 37°",19.51 µM
same,3DG Conc,"[2]; 15 mM, 0 day",18.08 µM
same,3DG Conc,"[2]; 15 mM, 1 day, 37°",17.74 µM
same,3DG Conc,"[2]; 15 mM, 3 days, 37°",16.84 µM
same,3DG Conc,"[2]; 30 mM, 0 day",18.91 µM
same,3DG Conc,"[2]; 30 mM, 1 day, 37°",17.67 µM
same,3DG Conc,"[2]; 30 mM, 3 days, 37°",17.63 µM
Cc1ncc(COP(=O)(O)O)c(C=O)c1O [Pyridoxal-5′-Phosphate],3DG Conc,"[2]; 2 mM, 1 day, 37°",13.71 µM
same,3DG Conc,"[2]; 2 mM, 3 days, 37°",12.29 µM
same,3DG Conc,"[2]; 6 mM, 1 day, 37°",13.00 µM
same,3DG Conc,"[2]; 6 mM, 3 days, 37°",8.12 µM
same,3DG Conc,"[2]; 12 mM, 1 day, 37°",12.20 µM
same,3DG Conc,"[2]; 12 mM, 3 days, 37°",7.14 µM
same,3DG inactivating activity,[2],most amount of 3DG inactivating activity
Cc1ncc(CO)c(C=O)c1O.Cl [Pyridoxal-HCl],3DG Conc,"[2]; 2 mM, 0 day",16.46 µM
same,3DG Conc,"[2]; 2 mM, 1 day, 37°",12.16 µM
same,3DG Conc,"[2]; 2 mM, 3 days, 37°",16.19 µM
same,3DG Conc,"[2]; 6 mM, 0 day",16.02 µM
same,3DG Conc,"[2]; 6 mM, 1 day, 37°",14.57 µM
same,3DG Conc,"[2]; 6 mM, 3 days, 37°",15.72 µM
same,3DG Conc,"[2]; 12 mM, 0 day",14.80 µM
same,3DG Conc,"[2]; 12 mM, 1 day, 37°",14.79 µM
same,3DG Conc,"[2]; 12 mM, 3 days, 37°",14.99 µM
Cc1ncc(CO)c(CO)c1O [Pyridoxine],3DG Conc,"[2]; 2 mM, 0 day",16.32 µM
same,3DG Conc,"[2]; 2 mM, 1 day, 37°",14.82 µM
same,3DG Conc,"[2]; 2 mM, 3 days, 37°",16.35 µM
same,3DG Conc,"[2]; 6 mM, 0 day",16.13 µM
same,3DG Conc,"[2]; 6 mM, 1 day, 37°",16.67 µM
same,3DG Conc,"[2]; 6 mM, 3 days, 37°",15.83 µM
same,3DG Conc,"[2]; 12 mM, 0 day",15.90 µM
same,3DG Conc,"[2]; 12 mM, 1 day, 37°",15.85 µM
same,3DG Conc,"[2]; 12 mM, 3 days, 37°",15.44 µM
Cc1ncc(C[n+]2csc(CCO)c2C)c(N)n1 [Thiamine-HCl],3DG Conc,"[2]; 5 mM, 1 day, 37°",16.27 µM
same,3DG Conc,"[2]; 5 mM, 3 days, 37°",14.49 µM
same,3DG Conc,"[2]; 15 mM, 1 day, 37°",14.83 µM
same,3DG Conc,"[2]; 15 mM, 3 days, 37°",14.81 µM
same,3DG Conc,"[2]; 30 mM, 1 day, 37°",17.76 µM
same,3DG Conc,"[2]; 30 mM, 3 days, 37°",14.89 µM
"NC[C@H]1CC[C@H](C(=O)O)CC1 [Tranexamic Acid, reference compound]",3DG Conc,"[2]; 5 mM, 0 day",20.96 µM
same,3DG Conc,"[2]; 5 mM, 1 day, 37°",24.16 µM
same,3DG Conc,"[2]; 5 mM, 3 days, 37°",22.02 µM
same,3DG Conc,"[2]; 15 mM, 0 day",18.06 µM
same,3DG Conc,"[2]; 15 mM, 1 day, 37°",18.98 µM
same,3DG Conc,"[2]; 15 mM, 3 days, 37°",19.21 µM
same,3DG Conc,"[2]; 30 mM, 0 day",19.25 µM
same,3DG Conc,"[2]; 30 mM, 1 day, 37°",17.42 µM
same,3DG Conc,"[2]; 30 mM, 3 days, 37°",16.87 µM
N[C@@H](CCCCNC[C@H](O)[C@@H](O)[C@@H](O)[C@H](O)CO)C(=O)O [galactitollysine],urinary or plasma 3DG,[3],reduced
N[C@@H](CCCCNC[C@@H](O)[C@@H](O)[C@H](O)[C@H](O)CO)C(=O)O [mannitollysine],urinary or plasma 3DG,[3],reduced
N[C@@H](CCCCNC[C@H](O)[C@@H](O)[C@H](O)[C@H](O)CO)C(=O)O [sorbitollysine],urinary or plasma 3DG,[3],reduced
Thiamine nitrate,3DG Conc,"[2]; 5 mM, 1 day, 37°",15.87 µM
same,3DG Conc,"[2]; 5 mM, 3 days, 37°",16.45 µM
same,3DG Conc,"[2]; 15 mM, 1 day, 37°",18.90 µM
same,3DG Conc,"[2]; 15 mM, 3 days, 37°",14.19 µM
same,3DG Conc,"[2]; 30 mM, 1 day, 37°",17.20 µM
same,3DG Conc,"[2]; 30 mM, 3 days, 37°",14.85 µM
